Data as given in patent publication US20260092039A1, “DUAL INHIBITORS FOR THE TREATMENT OF ALZHEIMER'S DISEASE” (UNIVERSITAT DE BARCELONA, priority 2023, published 2026).

Columns and labels:
[1] = Parallel artificial membrane permeation assay for blood-brain barrier (PAMPA-BBB); assay type: in vitro ADME, porcine; details: for Papp: pig, PBS:EtOH (70:30), read-out: Blood-brain barrier permeability Pe; for CNS prediction: predictive penetration in the CNS from Pe
Protocol: A parallel artificial membrane permeation assay for blood-brain barrier (PAMPA-BBB) was used to evaluate the brain penetration of compounds of formula I, following the method described by L. Di et al., “High throughput artificial membrane permeability assay for blood-brain barrier”, European Journal of Medicinal Chemistry 2003, vol. 38. pp. 223-232. The in vitro permeability (Pe) of the test compounds through a lipid extract of porcine brain membrane was determined. Assayed compounds were tested using a mixture of PBS:EtOH (70:30). Assay validation was made by comparing the experimental and reported permeability values of a set of fourteen commercial drugs and a lineal correlation between experimental and reported permeability values of the fourteen commercial drugs was obtained (y=1.678 x−1.447; R^2=0.9313). From this equation and taking into account the limits established by Di et al. for BBB permeation, the ranges of permeability were established, as follows. Compounds of high BBB permeation (CNS+): Pe (10^−6 cm s^−1)>5.26; compounds of low BBB permeation (CNS−): Pe (10^−6 cm s^−1)<1.91; and compounds of uncertain BBB permeation (CNS+/−): 5.26>Pe (10^−6 cm s^−1)>1.91. The permeability results are averages of three different experiments in triplicate and a predictive penetration in the CNS is also given (Table 5).

[2] = system: primary mouse cortical neurons; test: LDH toxicity assay in mouse primary cortical neurons; assay type: cell-based
Protocol: The compounds were diluted from 250 mM DMSO stocks to a 100 mM stock in DMSO. Thereafter, compounds were diluted to 100 μM, 20 μM, 5 μM, 1 μM, 0.2 μM, 0.05 μM, 0.01 μM and 0.001 μM dilution in medium, so that the final DMSO concentration in the well was 0.1% for all conditions. Stock solutions were stored at −20° C. until further use.
Isolation and treatment of primary mouse cortical neurons: Primary cortical neurons were prepared from timed pregnant wild-type C57BL/6JRccHsd mice at E16.5-E18. Animals were sacrificed by carbon dioxide and embryos were dissected in Calcium and Magnesium free Hanks Balanced Salt Solution (CMF-HBSS) containing 15 mM HEPES and 10 mM NaHCO3, pH 7.2. Embryos were decapitated, skin and skull gently removed and cortical hemispheres were separated. After removing meninges and brain stem, the cortex was isolated, chopped with a sterile razor blade in Chop solution (Hibernate-E without Calcium containing 2% B-27) and digested in 2 mg/mL papain (Worthington) dissolved in Hibernate-E without Calcium for 30 min at 30° C. Cortices were triturated for 10-15 times with a fire-polished silanized Pasteur pipette in Hibernate-E without Calcium containing 2% B-27, 0.01% DNaseI, 1 mg/mL BSA, and 1 mg/mL Ovomucoid Inhibitor. Undispersed pieces were allowed to settle by gravity for 1 min and the supernatant was centrifuged for 3 min at 228 g. The pellet was resuspended in Hibernate-E containing 2% B-27, 0.01% DNaseI, 1 mg/mL BSA, 1 mg/mL Ovomucoid Inhibitor and diluted with Hibernate-E containing 2% B-27. After the second centrifugation step (3 min at 228 g), the pellet was resuspended in nutrition medium without glutamate (Neurobasal, 2% B-27, 0.5 mM glutamine, 1% Penicillin-Streptomycin). Cells were counted in a hemacytometer and seeded in nutrition medium on poly-D-lysine pre-coated plates. Cells were cultured at 37° C.; 95% humidity and 5% CO2. All wells were handled the same way. On DIV8, cells were treated with the compounds for the evaluation of the neurotoxic effect. On DIV9, the MTT and LDH assays were performed as described below. The experiments were performed in six technical replicates for all groups per experiment.
LDH toxicity assay: Supernatants of cells were subjected to the lactate dehydrogenase (LDH) toxicity assay by using the Cytotoxicity Detection Kit (Roche Diagnostics, Cat. No: 11 644 793 001). Seventy μL of cell culture supernatant was transferred to clear 96-well plates. Seventy μL freshly prepared reaction mixture was added to each well and the mixture was incubated for 20 to 30 min at room temperature protected from light. Absorbance was measured at 492 nm and 620 nm as reference wavelength. Cell death was expressed as optical density (OD). Values were calculated as percent of control values (vehicle control).

Compound	Papp [1] [×10⁻⁶ cm/s]	CNS prediction [1]	LDH toxicity assay (cell death), primary cortical neurons ([2]; compound 0.001 μM)	LDH toxicity assay (cell death), primary cortical neurons ([2]; compound 0.01 μM)	LDH toxicity assay (cell death), primary cortical neurons ([2]; compound 0.05 μM)	LDH toxicity assay (cell death), primary cortical neurons ([2]; compound 0.2 μM)	LDH toxicity assay (cell death), primary cortical neurons ([2]; compound 1 μM)	LDH toxicity assay (cell death), primary cortical neurons ([2]; compound 5 μM)	LDH toxicity assay (cell death), primary cortical neurons ([2]; compound 20 μM)	LDH toxicity assay (cell death), primary cortical neurons ([2]; compound 100 μM)
CCC12CC3CC(C1)CC(NC(=O)NCCCn1cncc1C)(C3)O2 [Is, 1-(3-ethyl-2-oxaadamantan-1-yl)-3-[3-(5-methyl-1H-imidazol-1-yl)propyl]urea]	> 30	CNS+ (Compounds of high BBB permeation (CNS+): Pe (10^−6 cm s^−1)>5.26)	96 % of vehicle control	97 % of vehicle control	99 % of vehicle control	98 % of vehicle control	107 % of vehicle control	102 % of vehicle control	113 % of vehicle control	107 % of vehicle control
Cc1cncn1CCCNC(=O)NC12CC3CC(CC(C)(C3)O1)C2 [Ir, 1-[3-(5-methyl-1H-imidazol-1-yl)propyl]-3-(3-methyl-2-oxaadamantan-1-yl)urea]	6.9	CNS+ (Compounds of high BBB permeation (CNS+): Pe (10^−6 cm s^−1)>5.26)	100 % of vehicle control	100 % of vehicle control	101 % of vehicle control	101 % of vehicle control	100 % of vehicle control	100 % of vehicle control	101 % of vehicle control	107 % of vehicle control
CCC12CC3CC(C1)CC(NC(=O)NCCCn1cncc1C)(C3)C2 [Id, 1-(3-ethyladamantan-1-yl)-3-[3-(5-methyl-1H-imidazol-1-yl)propyl]urea]	> 30	CNS+ (Compounds of high BBB permeation (CNS+): Pe (10^−6 cm s^−1)>5.26)	114 % of vehicle control	104 % of vehicle control	100 % of vehicle control	100 % of vehicle control	99 % of vehicle control	102 % of vehicle control	109 % of vehicle control	157 % of vehicle control
Cc1cncn1CCCNC(=O)NC1C2CC3CC(C2)CC1C3 (stereo not shown) [Ii, 1-(adamantan-2-yl)-3-[3-(5-methyl-1H-imidazol-1-yl)propyl]urea]	> 30	CNS+ (Compounds of high BBB permeation (CNS+): Pe (10^−6 cm s^−1)>5.26)	99 % of vehicle control	97 % of vehicle control	97 % of vehicle control	94 % of vehicle control	101 % of vehicle control	100 % of vehicle control	97 % of vehicle control	113 % of vehicle control
